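A five-concentration, 48-hour dose response in 96-well plates underlies each endpoint, interpolated linearly between surrounding concentrations. GI50 is the concentration that inhibits growth by half.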 Calls of active or inactive are those of the source. Cut-off read from the data, not from the text of the source: active = GI50 up to about 1.1 µM and inactive = higher.

Some test systems named below: A498; A549; CCRF-CEM; COLO 205; DU-145; HCC 2998; HCT-116; HCT-15; HOP-92; MCF7; OVCAR-5; OVCAR-8; SF-295; SK-MEL-28; SK-MEL-2; SK-MEL-5; SK-OV-3; SNB-19; SNB-75.
Test in all cases: NCI anticancer screen, dose series, 48 h

Regarding `CC1=C(C#N)C23C(=O)c4ccccc4C(=O)C2=C(O)C=CC3(O)N1` (stereo not given), the GI50 in the experiment with A498 was 21 µM (inactive); in the experiment with A549 it was 1.67 µM (inactive); with CCRF-CEM, 0.365 µM (active); in the experiment on COLO 205 it was 2.03 µM (inactive); with DU-145, 2.98 µM (inactive); with HCC 2998, 4.02 µM (inactive). The GI50 in the experiment with HCT-116 was 5.68 µM (inactive); in the experiment on HCT-15 it was 2.44 µM; in the experiment with HOP-92, 2.12 µM (inactive); in the experiment with MCF7, 0.597 µM (active); in the experiment with OVCAR-5, 4.76 µM (inactive); with OVCAR-8, 5.09 µM (inactive). Also, the GI50 in the experiment with SF-295 was 13.6 µM (inactive); with SK-MEL-28 it was 2.51 µM (inactive); with SK-MEL-2, 4.4 µM (inactive); with SK-MEL-5, 1.06 µM (active); with SK-OV-3, 52 µM (inactive); with SNB-19 it was 4.33 µM (inactive). The GI50 in the experiment on SNB-75 was 2.3 µM (inactive).

On to `O=C1c2cccc(NCCNCCO)c2C(=O)c2cccc(NCCNCCO)c21`, for which the GI50 was 2.48 µM (inactive) with A498; 1.56 µM (inactive) with A549; 0.267 µM (active) with CCRF-CEM; 0.661 µM (active) in the experiment with COLO 205; 0.612 µM (active) in the experiment with DU-145; 0.802 µM (active) with HCC 2998. Besides, the GI50 with HCT-116 was 0.43 µM (active); with HCT-15 it was 5.28 µM; in the experiment on HOP-92, 0.507 µM (active); with MCF7, 0.39 µM (active); in the experiment with OVCAR-5, 1.53 µM (inactive); in the experiment with OVCAR-8 it was 0.989 µM (active). Also, the GI50 with SF-295 is 1.79 µM (inactive); with SK-MEL-28, 1.71 µM (inactive); with SK-MEL-2, 1.28 µM (inactive); in the experiment on SK-MEL-5 it was 1.69 µM (inactive); with SK-OV-3, 2.26 µM (inactive); in the experiment on SNB-19, 0.897 µM (active). Further, the GI50 with SNB-75 was 1.03 µM (active).

Regarding `Sc1nn2c(COc3ccc(Cl)cc3)nnc2s1`, the GI50 in the experiment with A549 was > 100 µM (inactive); in the experiment on COLO 205, > 100 µM (inactive); with DU-145 it was > 100 µM (inactive); with HCC 2998, > 100 µM (inactive); with HCT-116, > 100 µM (inactive); in the experiment on HCT-15 it was 81.8 µM. Also, the GI50 in the experiment with HOP-92, in the experiment on MCF7, in the experiment on OVCAR-5, in the experiment on OVCAR-8, in the experiment with SF-295 and with SK-MEL-28 was > 100 µM (inactive) each time. The GI50 in the experiment on SK-MEL-2, with SK-MEL-5, with SK-OV-3, with SNB-19 and in the experiment with SNB-75 was > 100 µM (inactive) each time.

`ClC(Cl)[Si]12OCCN(CCO1)CCO2`: the GI50 in the experiment on A498, in the experiment with A549, in the experiment with CCRF-CEM, with COLO 205, with HCC 2998 and in the experiment on HCT-116 was > 100 µM (inactive) throughout. Besides, the GI50 in the experiment on HOP-92, in the experiment on OVCAR-5, with OVCAR-8, in the experiment on SF-295, with SK-MEL-28 and in the experiment on SK-MEL-2 was > 100 µM (inactive) throughout. Moreover, the GI50 with SK-MEL-5, in the experiment with SK-OV-3, in the experiment on SNB-19 and in the experiment with SNB-75 was > 100 µM (inactive) throughout.

In the case of `COC(=O)C1(O)CC(=O)CCC1c1ccc(OC)cc1` (stereo not given), the GI50 in the experiment with A498, in the experiment with A549, in the experiment with CCRF-CEM, with COLO 205, in the experiment with HCC 2998 and with HCT-116 was > 100 µM (inactive) each time. In addition, the GI50 in the experiment with HCT-15 is > 100 µM; in the experiment on HOP-92, > 100 µM (inactive); with OVCAR-5, > 100 µM (inactive); with OVCAR-8 it was > 100 µM (inactive); in the experiment with SF-295, > 100 µM (inactive); in the experiment with SK-MEL-28, > 100 µM (inactive). The GI50 with SK-MEL-2, in the experiment on SK-MEL-5, in the experiment on SK-OV-3, with SNB-19 and in the experiment with SNB-75 was > 100 µM (inactive) each time.

`COc1ccc2[nH]c(=O)cc(C)c2c1[N+](=O)[O-]`: the GI50 is 54.8 µM (inactive) with A498; > 100 µM (inactive) in the experiment with A549; > 100 µM (inactive) in the experiment with CCRF-CEM; > 100 µM (inactive) in the experiment on COLO 205; > 100 µM (inactive) with HCC 2998; > 100 µM (inactive) in the experiment with HCT-116. Further, the GI50 was > 100 µM in the experiment with HCT-15; 32.4 µM (inactive) in the experiment on HOP-92; > 100 µM (inactive) in the experiment with OVCAR-5; > 100 µM (inactive) in the experiment with OVCAR-8; > 100 µM (inactive) with SF-295; > 100 µM (inactive) in the experiment on SK-MEL-28. Besides, the GI50 with SK-MEL-2 is > 100 µM (inactive); in the experiment on SK-MEL-5, > 100 µM (inactive); in the experiment with SK-OV-3, > 100 µM (inactive); with SNB-19, > 100 µM (inactive); in the experiment with SNB-75 it was 10.5 µM (inactive).

Consider `CC(=O)C1=CCC2c3[nH]c4ccccc4c3CCN2C1` (stereo not given), for which the GI50 is > 100 µM (inactive) with A498; > 100 µM (inactive) in the experiment on A549; 38.5 µM (inactive) in the experiment on CCRF-CEM; > 100 µM (inactive) in the experiment on COLO 205; 55 µM (inactive) in the experiment with HCC 2998; 45 µM (inactive) in the experiment on HCT-116. The GI50 is 50.8 µM with HCT-15; 36.3 µM (inactive) in the experiment with HOP-92; > 100 µM (inactive) in the experiment with OVCAR-5; 47.6 µM (inactive) in the experiment on OVCAR-8; 98.6 µM (inactive) in the experiment with SF-295; > 100 µM (inactive) with SK-MEL-28. Besides, the GI50 was 66.4 µM (inactive) with SK-MEL-2; 50 µM (inactive) in the experiment on SK-MEL-5; 21.6 µM (inactive) in the experiment on SK-OV-3; > 100 µM (inactive) with SNB-19; 15.1 µM (inactive) in the experiment with SNB-75.

On to `CC12CCCCC1(C)C2Sc1ccccc1` (stereo not given), for which the GI50 was > 50.4 µM (inactive) in the experiment with A498; 43.6 µM (inactive) in the experiment on A549; 19.7 µM (inactive) in the experiment on CCRF-CEM; > 65.3 µM (inactive) in the experiment with COLO 205; 31.4 µM (inactive) in the experiment on HCC 2998; 38.1 µM (inactive) in the experiment on HCT-116. Further, the GI50 in the experiment on HCT-15 was 55.5 µM; in the experiment on HOP-92, 26.7 µM (inactive); with OVCAR-5, > 100 µM (inactive); in the experiment on OVCAR-8, 42 µM (inactive); with SF-295, 35.6 µM (inactive); in the experiment on SK-MEL-28, 40.5 µM (inactive). The GI50 in the experiment on SK-MEL-2 is 23.4 µM (inactive); in the experiment with SK-MEL-5, 31 µM (inactive); with SK-OV-3, > 100 µM (inactive); with SNB-19, 38.5 µM (inactive); with SNB-75, 70.8 µM (inactive).

As for `Cc1ccc(NC(=O)C(=O)CC(=O)c2c(C)[n+]([O-])c3ccccc3[n+]2[O-])cc1C`, the GI50 in the experiment with A498 was > 100 µM (inactive); in the experiment with A549, > 100 µM (inactive); in the experiment on CCRF-CEM, 63.1 µM (inactive); in the experiment with COLO 205 it was 43.7 µM (inactive); in the experiment with HCC 2998, > 100 µM (inactive); in the experiment on HCT-116 it was > 100 µM (inactive). Besides, the GI50 in the experiment on HCT-15 was 83.2 µM; with HOP-92 it was > 100 µM (inactive); in the experiment on OVCAR-5 it was > 100 µM (inactive); with OVCAR-8, > 100 µM (inactive); with SF-295 it was > 100 µM (inactive); with SK-MEL-28, > 100 µM (inactive). The GI50 in the experiment with SK-MEL-2 was > 100 µM (inactive); with SK-MEL-5, > 100 µM (inactive); with SK-OV-3 it was > 100 µM (inactive); in the experiment on SNB-19, 47.3 µM (inactive); in the experiment on SNB-75, > 100 µM (inactive).

For `O=C(O)/C(=C/c1c(O)ccc2ccccc12)c1csc(-c2nc(/C(=C\c3c(O)ccc4ccccc34)C(=O)O)cs2)n1`, the GI50 in the experiment on A498 is 20.7 µM (inactive); with A549, 23.3 µM (inactive); with CCRF-CEM, 10.7 µM (inactive); in the experiment with COLO 205 it was 16.4 µM (inactive); in the experiment with HCC 2998 it was 17.4 µM (inactive); with HCT-116, 10.6 µM (inactive). The GI50 was 14.4 µM in the experiment with HCT-15; 1.86 µM (inactive) in the experiment with HOP-92; 17.5 µM (inactive) in the experiment on OVCAR-5; 22.2 µM (inactive) with OVCAR-8; 11.2 µM (inactive) in the experiment with SF-295; 14.4 µM (inactive) with SK-MEL-28. Besides, the GI50 in the experiment on SK-MEL-2 was 2.33 µM (inactive); in the experiment on SK-MEL-5, 19.4 µM (inactive); in the experiment with SK-OV-3, 12.3 µM (inactive); in the experiment with SNB-19, 13.5 µM (inactive); in the experiment with SNB-75, 11 µM (inactive).

As for `CC1=C(C(=O)Nc2c(C)cccc2C)C(c2ccccc2Cl)C(C(=O)Nc2c(C)cccc2C)=C(C)N1`, the GI50 in the experiment on A498, in the experiment on A549, in the experiment with CCRF-CEM, with COLO 205, in the experiment on HCC 2998 and with HOP-92 was > 100 µM (inactive) in each case. In addition, the GI50 in the experiment on OVCAR-5, with OVCAR-8, in the experiment with SF-295, with SK-MEL-28, with SK-MEL-2 and in the experiment with SK-MEL-5 was > 100 µM (inactive) throughout. Further, the GI50 with SK-OV-3 is > 100 µM (inactive); in the experiment with SNB-19, > 100 µM (inactive); with SNB-75, 94.8 µM (inactive).

On to `COc1ccc(C2=Nc3c(nc(SC)[nH]c3=O)NC(c3ccccc3)C2)cc1` (stereo not given), for which the GI50 in the experiment on A498 is 33.3 µM (inactive); in the experiment with A549, 24 µM (inactive); with CCRF-CEM, 29 µM (inactive); in the experiment on COLO 205, 19.6 µM (inactive); in the experiment with DU-145, 25.2 µM (inactive); with HCT-116, 30.9 µM (inactive). The GI50 in the experiment with HOP-92 was 46.3 µM (inactive); in the experiment on MCF7 it was 17.1 µM (inactive); in the experiment on OVCAR-5, 34.5 µM (inactive); in the experiment on OVCAR-8 it was 19.4 µM (inactive); with SF-295, 27.4 µM (inactive); in the experiment on SK-MEL-28, > 10 µM (inactive). Further, the GI50 in the experiment with SK-MEL-2 was 29.1 µM (inactive); with SK-MEL-5 it was 16.6 µM (inactive); in the experiment on SK-OV-3 it was 18.1 µM (inactive); in the experiment with SNB-19 it was 23.8 µM (inactive); with SNB-75, 17.8 µM (inactive).

The values are drawn from ChEMBL document CHEMBL1201862, “PubChem BioAssay data set” (2004).
